Results as given in US8410097B2 (priority 2005, dated 2013).
Where two headings read alike, the source gives them in different places.

Assays:
CB1 cannabinoid receptor = molecular target: T1, CB1 cannabinoid receptor (Rattus norvegicus, UniProt P20272); experiment: biochemical; format: binding; conditions: for Ki: rat forebrain membranes; for Selectivity CB1: CB1 over CB2 binding selectivity (ratio of Ki)
T1 construct: membranes were prepared from rat forebrain membranes; from tissue; host or cells: rat forebrain membranes
T1 sequence (P20272 whole entry): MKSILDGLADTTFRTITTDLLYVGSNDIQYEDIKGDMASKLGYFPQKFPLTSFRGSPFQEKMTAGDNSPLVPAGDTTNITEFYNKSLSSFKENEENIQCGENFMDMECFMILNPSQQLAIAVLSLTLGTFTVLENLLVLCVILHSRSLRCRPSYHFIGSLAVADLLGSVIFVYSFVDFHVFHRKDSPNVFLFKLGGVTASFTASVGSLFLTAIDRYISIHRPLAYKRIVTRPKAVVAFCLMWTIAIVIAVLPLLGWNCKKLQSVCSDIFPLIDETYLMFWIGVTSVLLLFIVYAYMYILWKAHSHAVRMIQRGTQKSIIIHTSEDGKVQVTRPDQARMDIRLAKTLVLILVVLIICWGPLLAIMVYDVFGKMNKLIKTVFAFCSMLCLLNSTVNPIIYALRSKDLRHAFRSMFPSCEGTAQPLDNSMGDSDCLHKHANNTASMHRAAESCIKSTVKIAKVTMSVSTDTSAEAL
Experimental: Some of the inventive analogs were tested for CB2 receptor binding affinity and for CB1 receptor affinity (to determine selectivity). […] The lower the Ki value the higher the binding affinity. […]
Membranes, previously frozen at −80° C., were thawed on ice. To the stirred suspension was added three volumes of TME (25 mM Tris-HCl buffer, 5 mM MgCl2 and 1 mM EDTA) at a pH 7.4. The suspension was incubated at 4° C. for 30 min. At the end of the incubation, the membranes were pelleted and washed three times with TME.
(§1) The treated membranes were subsequently used in the binding assay described below. Approximately 30 μg of membranes were incubated in silanized 96-well microtiter plate with TME containing 0.1% essentially fatty acid-free bovine serum albumin (BSA), 0.8 nM [^3H] […] Radioactivity was detected using MicroScint 20 scintillation cocktail added directly to the dried filterplates, and the filterplates were counted using a Packard Instruments Top-Count. […] Data collected from three independent experiments performed with duplicate determinations was normalized between 100% and 0% specific binding for [^3H] […] The normalized data was analyzed using a 4-parameter nonlinear logistic equation to yield IC50 values.

CB2 cannabinoid receptor = CB2 cannabinoid receptor (Mus musculus, UniProt P47936); experiment: biochemical; format: binding; conditions: mouse spleen membranes
CB2 cannabinoid receptor, sequence (P47936 whole entry): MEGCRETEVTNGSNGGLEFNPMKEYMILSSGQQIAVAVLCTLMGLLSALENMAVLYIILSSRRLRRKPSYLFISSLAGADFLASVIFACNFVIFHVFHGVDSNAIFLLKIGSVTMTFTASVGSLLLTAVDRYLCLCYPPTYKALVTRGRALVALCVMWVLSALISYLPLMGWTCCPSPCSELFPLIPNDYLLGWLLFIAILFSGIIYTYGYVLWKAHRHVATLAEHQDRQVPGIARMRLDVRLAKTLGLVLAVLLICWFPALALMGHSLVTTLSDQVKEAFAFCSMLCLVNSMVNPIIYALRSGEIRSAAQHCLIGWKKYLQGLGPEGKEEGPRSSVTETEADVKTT
Experimental: Some of the inventive analogs were tested for CB2 receptor binding affinity and for CB1 receptor affinity (to determine selectivity). […] The lower the Ki value the higher the binding affinity.
as §1
Silanized centrifuge tubes were used throughout to minimize receptor loss due to adsorption. The CB2 binding assay was conducted in the same manner as for the CB1 binding assay. The binding affinities (Ki) were also expressed in nanomoles (nM).

[1] = CB1 Ki, Table 6, 0.8 nM [3H] CP-55,940
[2] = CB2 Ki, Table 6, [3H] CP-55,940
[3] = Table 6, 0.8 nM [3H] CP-55,940, read-out: CB1 Ki
[4] = Table 6, [3H] CP-55,940, read-out: CB2 Ki
[5] = Receptor Affinities Ki (nM) CB1, Table 8
[6] = Table 8, read-out: Receptor Affinities Ki (nM) CB2
[7] = Receptor Affinities Ki (nM) CB1, Table 10
[8] = Table 10, read-out: Receptor Affinities Ki (nM) CB2

`O=C(NN1CCCCC1)c1nc(-c2ccc(Cl)cc2Cl)n(-c2ccc(C#CCO)cc2)c1CO` [Compound 1-34] showed a Ki (CB1 cannabinoid receptor; [1]) of 23.2 nM and a Ki (CB2 cannabinoid receptor; [2]) of 5360 nM.

`CN(C(=O)c1nc(-c2ccc(Cl)cc2Cl)n(-c2ccc(-c3nnnn3C)cc2)c1CO)C1CCCCC1` [Compound 1-26] was tested, and the Ki (CB1 cannabinoid receptor; [3]) was 101 nM and the Ki (CB2 cannabinoid receptor; [4]) was 1320 nM.

`[N-]=[N+]=NCc1c(C(=O)NN2CCCCC2)nc(-c2ccc(Cl)cc2Cl)n1-c1ccc(Br)cc1` [Compound 1-41] gave a Ki (CB1 cannabinoid receptor; [1]) of 7 nM and a Ki (CB2 cannabinoid receptor; [4]) of 954 nM.

In the case of `O=C(NC1CCCCC1)c1nc(-c2ccc(Cl)cc2Cl)n(-c2ccc(Br)cc2)c1CO` [Compound 1-10], the Ki (CB1 cannabinoid receptor; [1]) is reported as 4.6 nM and the Ki (CB2 cannabinoid receptor; [4]) is reported as 3030 nM.

In the case of `Cc1c(C(=O)N(C)C2CCCCC2)nc(-c2ccc(Cl)cc2Cl)n1-c1ccc(C#CCO)cc1` [Compound 3-9], the Ki (CB1 cannabinoid receptor; [5]) is reported as 27 nM, the “Selectivity CB1” value (CB1 cannabinoid receptor; Table 8) is reported as 9 and the Ki (CB2 cannabinoid receptor; [6]) is reported as 257 nM.

For `Cc1c(C(=O)NN2CCCCC2)nn(-c2ccc(Cl)cc2Cl)c1-c1ccc(CCC#N)cc1` [Compound 4-4], the Ki (CB1 cannabinoid receptor; Receptor Affinities Ki (nM) CB1, Table 9) was 13 nM, the “Selectivity CB1” value (CB1 cannabinoid receptor; Table 9) was 176 and the Ki (CB2 cannabinoid receptor; Table 9, read-out: Receptor Affinities Ki (nM) CB2) was 2290 nM.

Compound `Cc1c(C(=O)N(C)C2CCCCC2)nc(-c2ccc(Cl)cc2Cl)n1-c1ccc(-c2nnnn2C)cc1` [Compound 1-23] has a Ki (CB1 cannabinoid receptor; [1]) of 982 nM and a Ki (CB2 cannabinoid receptor; [2]) of 4150 nM.

`Cc1c(C(=O)NN2CCCCC2)nn(-c2ccc(Cl)cc2Cl)c1-c1ccc(C#CCCN)cc1` [Compound 5-13] was tested, and the Ki (CB1 cannabinoid receptor; [7]) was 20 nM, the “Selectivity CB1” value (CB1 cannabinoid receptor; Table 10) was 36 and the Ki (CB2 cannabinoid receptor; [8]) was 732 nM.

With `Cc1c(C(=O)N(C)C2CCCCC2)nc(-c2ccc(Cl)cc2Cl)n1-c1ccc(-c2nnn[nH]2)cc1` [Compound 1-22] the Ki (CB1 cannabinoid receptor; [3]) was 359 nM and the Ki (CB2 cannabinoid receptor; [4]) was 26300 nM.

In the case of `N=C(S)c1ccc(-n2c(-c3ccc(Cl)cc3Cl)nc(C(=O)NN3CCCCC3)c2CO)cc1` [Compound 1-29], the Ki (CB1 cannabinoid receptor; [1]) is reported as 47.6 nM and the Ki (CB2 cannabinoid receptor; [4]) is reported as 640 nM.

`Cc1c(C(=O)NN2CCCCC2)nn(-c2ccc(Cl)cc2Cl)c1-c1ccc(C#Cc2cccnc2)cc1` [Compound 5-10] was tested, and the Ki (CB1 cannabinoid receptor; [7]) was 15 nM, the “Selectivity CB1” value (CB1 cannabinoid receptor; Table 10) was 3.6 and the Ki (CB2 cannabinoid receptor; [8]) was 54 nM.

In the case of `Cc1c(C(=O)NN2CCCCC2)nn(-c2ccc(Cl)cc2Cl)c1-c1ccc(C#CCCCCN)cc1` [Compound 5-15], the Ki (CB1 cannabinoid receptor; [7]) is reported as 87 nM, the “Selectivity CB1” value (CB1 cannabinoid receptor; Table 10) is reported as 17 and the Ki (CB2 cannabinoid receptor; [8]) is reported as 1530 nM.

Work on `Cc1c(C(=O)NN2CCCCC2)nc(-c2ccc(Cl)cc2Cl)n1-c1ccc(I)cc1` [Compound 1-6] yielded a Ki (CB1 cannabinoid receptor; [1]) of 2.7 nM and a Ki (CB2 cannabinoid receptor; [4]) of 4310 nM.

`Cc1c(C(=O)NN2CCCCC2)nn(-c2ccc(Cl)cc2Cl)c1-c1ccc(C#CCCCCO)cc1` [Compound 3-7] was tested, and the Ki (CB1 cannabinoid receptor; [5]) was 3 nM, the “Selectivity CB1” value (CB1 cannabinoid receptor; Table 8) was 39 and the Ki (CB2 cannabinoid receptor; [6]) was 116 nM.

For `Cc1c(C(=O)N2CCCCC2)nc(-c2ccc(Cl)cc2Cl)n1-c1ccc(Br)cc1` [Compound 1-13], the Ki (CB1 cannabinoid receptor; [1]) was 22 nM and the Ki (CB2 cannabinoid receptor; [4]) was 2450 nM.

Work on `O=C(NN1CCCCC1)c1nc(-c2ccc(Cl)cc2Cl)n(-c2ccc(Br)cc2)c1CO` [Compound 1-4] yielded a Ki (CB1 cannabinoid receptor; [1]) of 10.8 nM and a Ki (CB2 cannabinoid receptor; [2]) of 319 nM.

`N#CCCC#Cc1ccc(-c2c(CO)c(C(=O)NN3CCCCC3)nn2-c2ccc(Cl)cc2Cl)cc1` [Compound 3-1] was tested, and the Ki (CB1 cannabinoid receptor; [5]) was 6 nM, the “Selectivity CB1” value (CB1 cannabinoid receptor; Table 8) was 44 and the Ki (CB2 cannabinoid receptor; [6]) was 265 nM.

Compound `Cc1c(C(=O)NN2CCCCC2)nc(-c2ccc(Cl)cc2Cl)n1-c1ccc(C#CCCO)cc1` [Compound 1-32] has a Ki (CB1 cannabinoid receptor; [1]) of 6.2 nM and a Ki (CB2 cannabinoid receptor; [4]) of 5090 nM.

For `Cc1c(C(=O)NN2CCCCC2)nc(-c2ccc(Cl)cc2Cl)n1-c1ccc(C#CCO)cc1` [Compound 1-31], the Ki (CB1 cannabinoid receptor; [1]) was 18 nM and the Ki (CB2 cannabinoid receptor; [4]) was 1140 nM.

For `Cc1c(C(=O)NN2CCCCC2)nn(-c2ccc(Cl)cc2Cl)c1-c1ccc(C#CCN=[N+]=[N-])cc1` [Compound 3-3], the Ki (CB1 cannabinoid receptor; [5]) was 3 nM, the “Selectivity CB1” value (CB1 cannabinoid receptor; Table 8) was 250 and the Ki (CB2 cannabinoid receptor; [6]) was 750 nM.

`Cn1nnnc1-c1ccc(-n2c(-c3ccc(Cl)cc3Cl)nc(C(=O)NN3CCCCC3)c2CO)cc1` [Compound 1-20] gave a Ki (CB1 cannabinoid receptor; [3]) of 400 nM and a Ki (CB2 cannabinoid receptor; [4]) of 12300 nM.

With `Cc1c(C(=O)N(C)C2CCCCC2)nc(-c2ccc(Cl)cc2Cl)n1-c1ccc(-c2nnn(C)n2)cc1` [Compound 1-24] the Ki (CB1 cannabinoid receptor; [1]) was 11.2 nM and the Ki (CB2 cannabinoid receptor; [4]) was 220 nM.

In the case of `Cc1c(C(=O)NN2CCCCC2)nc(-c2ccc(Cl)cc2Cl)n1-c1ccc(C#CCCC#N)cc1` [Compound 1-33], the Ki (CB1 cannabinoid receptor; [1]) is reported as 1.6 nM and the Ki (CB2 cannabinoid receptor; [4]) is reported as 271 nM.
